Laboratory results published in ChEMBL document CHEMBL5154688, “Design, Synthesis, and Characterization of I-BET567, a Pan-Bromodomain and Extra Terminal (BET) Bromodomain Oral Candidate” (J Med Chem, 2022).

Tests used:
[1] = Artificial membrane permeability of the compound; format: ADME; conditions: PAMPA; read-out: permeability
[2] = target: C-C motif chemokine 2 (Homo sapiens, UniProt P13500); test: Inhibition of MCP-1 in LPS-stimulated human whole blood incubate for 24 hrs by immuno assay; format: tissue-based
[3] = target: Cytochrome P450 3A4 (Homo sapiens, UniProt P08684); test: Inhibition of CYP3A4 (unknown origin); format: ADME
[4] = Intrinsic clearance in dog hepatocytes incubated upto 45 mins by LC-MS/MS analysis; format: ADME, cell-based, Canis lupus familiaris, Hepatocyte; conditions: 0.75 h
[5] = Intrinsic clearance in human hepatocytes measured after 120 mins by LC-MS/MS analysis; format: ADME, cell-based, Hepatocyte; conditions: 2 h
[6] = target: Voltage-gated inwardly rectifying potassium channel KCNH2 (Homo sapiens, UniProt Q12809); test: Inhibition of hERG; format: toxicity
Voltage-gated inwardly rectifying potassium channel KCNH2, sequence (Q12809 whole entry): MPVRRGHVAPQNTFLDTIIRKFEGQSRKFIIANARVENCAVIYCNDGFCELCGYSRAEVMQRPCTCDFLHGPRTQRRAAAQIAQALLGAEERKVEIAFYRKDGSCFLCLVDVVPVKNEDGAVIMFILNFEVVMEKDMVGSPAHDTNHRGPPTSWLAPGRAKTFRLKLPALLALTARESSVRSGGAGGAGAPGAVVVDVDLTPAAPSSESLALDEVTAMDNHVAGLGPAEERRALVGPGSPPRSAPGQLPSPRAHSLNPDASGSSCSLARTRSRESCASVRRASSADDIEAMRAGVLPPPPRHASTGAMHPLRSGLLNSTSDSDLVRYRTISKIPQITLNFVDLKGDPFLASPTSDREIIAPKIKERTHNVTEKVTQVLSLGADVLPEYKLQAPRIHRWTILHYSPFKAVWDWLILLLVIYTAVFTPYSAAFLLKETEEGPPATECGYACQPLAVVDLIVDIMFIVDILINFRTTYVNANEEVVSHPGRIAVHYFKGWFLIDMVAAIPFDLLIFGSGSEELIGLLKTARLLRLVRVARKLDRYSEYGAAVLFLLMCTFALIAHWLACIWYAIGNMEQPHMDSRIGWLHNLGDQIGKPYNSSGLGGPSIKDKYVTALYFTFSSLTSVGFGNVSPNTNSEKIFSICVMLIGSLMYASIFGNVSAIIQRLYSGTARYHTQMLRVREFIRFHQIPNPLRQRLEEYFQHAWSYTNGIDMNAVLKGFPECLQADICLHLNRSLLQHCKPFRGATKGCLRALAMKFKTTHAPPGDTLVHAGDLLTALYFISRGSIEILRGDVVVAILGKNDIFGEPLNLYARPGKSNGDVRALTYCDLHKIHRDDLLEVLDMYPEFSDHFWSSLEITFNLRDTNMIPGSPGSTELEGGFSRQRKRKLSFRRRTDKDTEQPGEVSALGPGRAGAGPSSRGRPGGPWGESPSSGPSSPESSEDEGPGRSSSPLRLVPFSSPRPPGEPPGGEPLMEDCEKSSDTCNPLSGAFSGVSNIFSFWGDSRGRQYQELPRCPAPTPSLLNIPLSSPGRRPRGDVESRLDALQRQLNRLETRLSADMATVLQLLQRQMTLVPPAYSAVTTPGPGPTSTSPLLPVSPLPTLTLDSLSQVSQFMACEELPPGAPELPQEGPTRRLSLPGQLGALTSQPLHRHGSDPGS

[7] = Renal clearance in Beagle dog at 3 mg/kg, po or 1.0 mg/kg, iv by LC-MS/MS analysis; format: ADME, organism-based, Canis lupus familiaris; conditions: in vivo
[8] = Volume of distribution at steady state in Beagle dog blood at 3 mg/kg, po or 1.0 mg/kg, iv by LC-MS/MS analysis; format: ADME, organism-based, Canis lupus familiaris; conditions: in vivo
[9] = Unbound volume of distribution at steady state in Wistar Han rat blood at 3 mg/kg, po or 1.3 mg/kg, iv measured upto 24 hrs by LC-MS/MS analysis; format: ADME, organism-based; conditions: in vivo
[10] = Terminal half life in Wistar Han rat blood at 3 mg/kg, po or 1.3 mg/kg, iv measured upto 24 hrs by LC-MS/MS analysis; format: ADME, organism-based; conditions: read-out: beta t1/2 (converted)
[11] = Oral bioavailability in Beagle dog blood at 3 mg/kg by LC-MS/MS analysis; format: ADME, organism-based, Canis lupus familiaris
[12] = Unbound fraction in Wistar Han rat blood at 3 mg/kg, po or 1.3 mg/kg, iv measured upto 24 hrs by LC-MS/MS analysis; format: ADME, organism-based
[13] = Unbound fraction in Beagle dog blood at 3 mg/kg, po or 1.0 mg/kg, iv by LC-MS/MS analysis; format: ADME, organism-based, Canis lupus familiaris
[14] = target: T1, Bromodomain-containing protein 2 (Homo sapiens, UniProt P25440); test: Binding affinity to BRD2 BD1 (unknown origin) assessed as dissociation constant
T1 sequence (P25440 whole entry): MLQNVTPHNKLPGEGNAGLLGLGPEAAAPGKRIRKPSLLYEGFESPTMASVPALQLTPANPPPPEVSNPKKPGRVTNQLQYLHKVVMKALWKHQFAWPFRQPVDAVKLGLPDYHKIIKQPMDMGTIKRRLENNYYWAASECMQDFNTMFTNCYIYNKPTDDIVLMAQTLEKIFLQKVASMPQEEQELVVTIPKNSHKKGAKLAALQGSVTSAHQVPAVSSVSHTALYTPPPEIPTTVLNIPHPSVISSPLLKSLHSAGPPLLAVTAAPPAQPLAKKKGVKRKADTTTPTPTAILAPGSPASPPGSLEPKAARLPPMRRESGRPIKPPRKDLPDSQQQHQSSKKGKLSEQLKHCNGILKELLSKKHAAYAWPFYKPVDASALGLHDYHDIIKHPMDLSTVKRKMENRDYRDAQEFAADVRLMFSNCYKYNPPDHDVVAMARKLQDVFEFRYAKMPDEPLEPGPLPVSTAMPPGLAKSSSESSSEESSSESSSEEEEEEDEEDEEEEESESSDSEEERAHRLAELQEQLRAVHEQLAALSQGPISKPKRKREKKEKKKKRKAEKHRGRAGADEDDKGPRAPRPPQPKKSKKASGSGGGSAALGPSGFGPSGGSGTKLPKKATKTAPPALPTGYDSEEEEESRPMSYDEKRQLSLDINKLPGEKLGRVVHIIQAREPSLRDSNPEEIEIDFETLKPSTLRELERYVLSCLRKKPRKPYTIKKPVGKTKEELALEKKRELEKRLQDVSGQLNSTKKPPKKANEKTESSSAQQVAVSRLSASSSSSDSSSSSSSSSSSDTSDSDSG

[15] = target: T1, Bromodomain-containing protein 2; test: Binding affinity to BRD2 BD2 (unknown origin) assessed as dissociation constant
[16] = target: T2, Bromodomain-containing protein 3 (Homo sapiens, UniProt Q15059); test: Binding affinity to BRD3 BD1 (unknown origin) assessed as dissociation constant
T2 sequence (Q15059 whole entry): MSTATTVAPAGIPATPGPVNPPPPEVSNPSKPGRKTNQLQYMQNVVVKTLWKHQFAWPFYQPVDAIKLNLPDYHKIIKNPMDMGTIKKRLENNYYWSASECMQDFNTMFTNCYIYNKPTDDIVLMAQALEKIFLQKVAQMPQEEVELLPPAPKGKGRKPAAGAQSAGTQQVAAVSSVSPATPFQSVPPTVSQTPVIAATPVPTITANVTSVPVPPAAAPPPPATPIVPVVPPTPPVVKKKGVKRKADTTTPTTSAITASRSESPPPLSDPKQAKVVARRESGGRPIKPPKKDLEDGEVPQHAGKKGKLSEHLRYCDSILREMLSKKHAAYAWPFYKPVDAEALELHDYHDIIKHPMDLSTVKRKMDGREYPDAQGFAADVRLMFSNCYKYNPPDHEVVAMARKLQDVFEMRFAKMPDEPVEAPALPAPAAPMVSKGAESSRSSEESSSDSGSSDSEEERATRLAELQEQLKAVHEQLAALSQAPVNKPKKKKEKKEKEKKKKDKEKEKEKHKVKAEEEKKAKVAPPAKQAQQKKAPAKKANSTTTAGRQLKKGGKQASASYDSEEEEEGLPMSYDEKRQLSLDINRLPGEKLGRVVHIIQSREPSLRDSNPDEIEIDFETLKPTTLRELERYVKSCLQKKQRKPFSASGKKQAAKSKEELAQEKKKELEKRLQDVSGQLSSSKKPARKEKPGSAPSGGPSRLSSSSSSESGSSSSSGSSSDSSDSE

[17] = target: T2, Bromodomain-containing protein 3; test: Binding affinity to BRD3 BD2 (unknown origin) assessed as dissociation constant
[18] = target: Bromodomain-containing protein 4 (Homo sapiens, UniProt O60885); test: Binding affinity to BRD4 BD2 (unknown origin) assessed as dissociation constant
[19] = target: T3, Bromodomain testis-specific protein (Homo sapiens, UniProt Q58F21); test: Binding affinity to BRDT BD1 (unknown origin) assessed as dissociation constant
[20] = target: T3, Bromodomain testis-specific protein; test: Binding affinity to BRDT BD2 (unknown origin) assessed as dissociation constant
[21] = target: CREB-binding protein (Homo sapiens, UniProt Q92793); test: Binding affinity to CREBBP (unknown origin) assessed as dissociation constant
CREB-binding protein, sequence (Q92793 whole entry): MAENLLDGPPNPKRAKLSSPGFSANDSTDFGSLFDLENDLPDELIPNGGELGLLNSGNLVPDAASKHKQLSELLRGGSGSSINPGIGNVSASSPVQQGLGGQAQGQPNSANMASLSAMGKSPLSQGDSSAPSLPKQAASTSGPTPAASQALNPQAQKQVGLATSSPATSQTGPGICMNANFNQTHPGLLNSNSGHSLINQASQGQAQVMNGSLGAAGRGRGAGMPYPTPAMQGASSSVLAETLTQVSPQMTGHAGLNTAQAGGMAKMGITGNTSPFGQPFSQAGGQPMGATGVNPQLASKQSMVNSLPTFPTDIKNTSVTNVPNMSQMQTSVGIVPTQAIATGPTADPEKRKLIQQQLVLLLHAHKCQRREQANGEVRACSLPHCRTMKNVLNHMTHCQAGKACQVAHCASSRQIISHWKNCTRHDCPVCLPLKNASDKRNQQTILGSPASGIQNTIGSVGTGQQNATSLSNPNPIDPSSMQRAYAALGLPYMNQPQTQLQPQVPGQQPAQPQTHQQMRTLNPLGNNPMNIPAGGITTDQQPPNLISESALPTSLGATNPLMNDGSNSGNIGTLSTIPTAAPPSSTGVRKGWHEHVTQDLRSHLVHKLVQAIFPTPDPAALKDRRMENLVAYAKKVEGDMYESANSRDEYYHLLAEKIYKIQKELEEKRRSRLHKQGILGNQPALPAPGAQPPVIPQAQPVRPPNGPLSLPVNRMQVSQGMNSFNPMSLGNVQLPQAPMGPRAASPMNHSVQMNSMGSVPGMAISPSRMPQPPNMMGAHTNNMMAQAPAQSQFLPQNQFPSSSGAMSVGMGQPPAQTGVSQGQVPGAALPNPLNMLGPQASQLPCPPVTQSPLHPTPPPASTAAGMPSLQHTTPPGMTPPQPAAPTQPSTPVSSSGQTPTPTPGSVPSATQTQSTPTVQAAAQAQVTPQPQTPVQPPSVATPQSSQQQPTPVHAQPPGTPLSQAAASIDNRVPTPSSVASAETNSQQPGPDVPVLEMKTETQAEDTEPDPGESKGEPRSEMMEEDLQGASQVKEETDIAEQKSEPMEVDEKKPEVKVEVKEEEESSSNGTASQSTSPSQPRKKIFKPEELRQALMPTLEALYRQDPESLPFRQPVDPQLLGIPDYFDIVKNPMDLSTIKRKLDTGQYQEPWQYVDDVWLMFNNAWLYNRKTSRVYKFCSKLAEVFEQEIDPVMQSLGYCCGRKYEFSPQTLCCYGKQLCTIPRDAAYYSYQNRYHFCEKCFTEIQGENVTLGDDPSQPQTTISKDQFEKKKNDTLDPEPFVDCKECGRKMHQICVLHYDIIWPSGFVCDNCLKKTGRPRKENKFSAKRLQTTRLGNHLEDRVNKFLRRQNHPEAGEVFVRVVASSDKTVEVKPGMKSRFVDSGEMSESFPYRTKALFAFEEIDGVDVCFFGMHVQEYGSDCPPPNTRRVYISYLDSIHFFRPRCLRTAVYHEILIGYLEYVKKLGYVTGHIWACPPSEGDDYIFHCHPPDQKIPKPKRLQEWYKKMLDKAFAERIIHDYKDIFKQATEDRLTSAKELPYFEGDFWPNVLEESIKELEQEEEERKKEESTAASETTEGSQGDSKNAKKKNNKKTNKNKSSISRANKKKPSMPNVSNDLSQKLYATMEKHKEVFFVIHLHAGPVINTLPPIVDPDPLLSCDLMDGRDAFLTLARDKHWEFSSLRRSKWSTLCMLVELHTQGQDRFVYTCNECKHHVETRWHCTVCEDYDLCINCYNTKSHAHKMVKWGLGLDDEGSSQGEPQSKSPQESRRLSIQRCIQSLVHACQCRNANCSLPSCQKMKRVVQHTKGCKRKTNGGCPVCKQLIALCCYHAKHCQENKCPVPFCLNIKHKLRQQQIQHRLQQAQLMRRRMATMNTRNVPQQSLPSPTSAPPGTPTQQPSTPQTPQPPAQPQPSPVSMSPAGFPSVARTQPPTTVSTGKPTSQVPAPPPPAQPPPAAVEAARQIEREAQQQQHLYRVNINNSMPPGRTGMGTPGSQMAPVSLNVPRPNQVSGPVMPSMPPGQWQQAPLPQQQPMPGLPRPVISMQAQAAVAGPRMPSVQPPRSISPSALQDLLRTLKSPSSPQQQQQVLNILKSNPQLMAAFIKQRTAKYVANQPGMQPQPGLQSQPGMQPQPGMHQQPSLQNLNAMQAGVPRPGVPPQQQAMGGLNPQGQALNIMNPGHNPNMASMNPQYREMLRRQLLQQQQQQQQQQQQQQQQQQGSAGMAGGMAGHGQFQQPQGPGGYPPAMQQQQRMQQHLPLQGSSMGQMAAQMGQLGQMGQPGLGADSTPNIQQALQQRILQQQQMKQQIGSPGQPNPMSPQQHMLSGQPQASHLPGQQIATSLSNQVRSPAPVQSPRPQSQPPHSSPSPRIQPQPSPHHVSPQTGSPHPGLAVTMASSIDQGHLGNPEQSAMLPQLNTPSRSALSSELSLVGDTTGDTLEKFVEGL

[22] = target: Histone acetyltransferase p300 (Homo sapiens, UniProt Q09472); test: Binding affinity to EP300 (unknown origin) assessed as dissociation constant
[23] = tested on: Mus musculus; test: Antiinflammatory activity in KLH-TNP-induced T-cell dependent immunization CD-1 mouse model assessed as reduction in circulating IgG1 at 30 mg/kg, po administered every other day for 14 days followed by administration of KLH-TNP after 1 hr; format: functional; conditions: CD-1, T-cell, 336 h, time 14 day
[24] = AUC(0 to 72 hrs) in KLH-TNP-induced T-cell dependent immunization CD-1 mouse model at 30 mg/kg, po administered daily for 14 days; format: ADME, organism-based; design: dose 30 mg/kg, time 14 day, route po; conditions: in vivo
[25] = Antineoplastic activity against human NMC 11060 cells xenografted in SCID mouse assessed as reduction in tumor volume at 3 to 30 mg/kg, po for 20 days; format: functional, NUT midline carcinoma; design: scale not given: the % may be the effect or the level left; conditions: dose 3-30 mg/kg, time 20 day
[26] = Toxicity in SCID mouse xenografted with human NMC 11060 cells assessed as tolerability at 3 to 30 mg/kg, po for 20 days; format: organism-based; conditions: in vivo, 480 h, dose 3-30 mg/kg, time 20 day
[27] = Toxicity in KLH-TNP-induced T-cell dependent immunization CD-1 mouse model assessed as effect on body weight at 30 mg/kg, po administered daily for 14 days; format: organism-based; conditions: in vivo, 336 h, time 14 day
[28] = Toxicity in KLH-TNP-induced T-cell dependent immunization CD-1 mouse model assessed as tolerability at 30 mg/kg, po administered daily for 14 days; format: organism-based; conditions: in vivo, 336 h, time 14 day
[29] = Toxicity in SCID mouse xenografted with human NMC 11060 cells assessed as loss of body weight at 30 mg/kg, po for 20 days; format: organism-based; conditions: in vivo, 480 h, time 20 day
[30] = Antineoplastic activity against human NMC 11060 cells xenografted in SCID mouse assessed as reduction in tumor volume at 10 mg/kg, po for 20 days measured at 3 days of post randomization relative to control; format: functional; conditions: NMC 11060 cell, 480 h, time 20 day
[31] = Antineoplastic activity against human NMC 11060 cells xenografted in SCID mouse assessed as reduction in tumor volume at 10 mg/kg, po for 20 days measured at 6 days of post randomization relative to control; format: functional; conditions: NMC 11060 cell, 480 h, time 20 day
[32] = Antineoplastic activity against human NMC 11060 cells xenografted in SCID mouse assessed as reduction in tumor volume at 10 mg/kg, po for 20 days measured at 13 days of post randomization relative to control; format: functional; conditions: NMC 11060 cell, 480 h, time 20 day
[33] = Antineoplastic activity against human NMC 11060 cells xenografted in SCID mouse assessed as reduction in tumor volume at 10 mg/kg, po for 20 days measured at 15 days of post randomization relative to control; format: functional; conditions: NMC 11060 cell, 480 h, time 20 day
[34] = Antineoplastic activity against human NMC 11060 cells xenografted in SCID mouse assessed as reduction in tumor volume at 10 mg/kg, po for 20 days measured at 17 days of post randomization relative to control; format: functional; conditions: NMC 11060 cell, 480 h, time 20 day
[35] = Antineoplastic activity against human NMC 11060 cells xenografted in SCID mouse assessed as reduction in tumor volume at 30 mg/kg, po for 20 days measured at 3 days of post randomization relative to control; format: functional; conditions: NMC 11060 cell, 480 h, time 20 day
[36] = Antineoplastic activity against human NMC 11060 cells xenografted in SCID mouse assessed as reduction in tumor volume at 30 mg/kg, po for 20 days measured at 10 days of post randomization relative to control; format: functional; conditions: NMC 11060 cell, 480 h, time 20 day
[37] = Antineoplastic activity against human NMC 11060 cells xenografted in SCID mouse assessed as reduction in tumor volume at 30 mg/kg, po for 20 days measured at 17 days of post randomization relative to control; format: functional; conditions: NMC 11060 cell, 480 h, time 20 day
[38] = Antineoplastic activity against human NMC 11060 cells xenografted in SCID mouse assessed as reduction in tumor volume at 30 mg/kg, po for 20 days measured at 20 days of post randomization relative to control; format: functional; conditions: NMC 11060 cell, 480 h, time 20 day

CC(=O)N1c2ccc(C(N)=O)cc2[C@H](Nc2ncc(Cl)cn2)C[C@@H]1C
Papp [1]: 6.8 ×10⁻⁶ cm/s
IC50 [2]: 200 nM
IC50 [3]: > 39800 nM
CLH [4]: < 1.26 mL/min/g
CLH [5]: < 0.87 mL/min/g
IC50 [6]: > 50100 nM
CL renal [7]: 6.9 mL/min/kg
Vdss [8]: 1.2 L/kg
Vduss [9]: 10.4 L/kg
half-life [10]: 1.6 h
bioavailability [11]: 98%
fraction unbound at 24 h [12]: 0.23
fraction unbound [13]: 0.41
Kd [14]: 39.8 nM
Kd [15]: 7.94 nM
Kd [16]: 25.1 nM
Kd [17]: 6.31 nM
Kd [18]: 5.01 nM
Kd [19]: 25.1 nM
Kd [20]: 25.1 nM
Kd [21]: 2510 nM
Kd [22]: 2510 nM
inhibition in vivo at 30 mg/kg [23]: 93%
AUC at 336 h [24]: 103 µM·h
Activity [25]: >50%
Activity [26]: Non-Toxic
Activity [27]: Non-Toxic
Activity [28]: Non-Toxic
Activity [29]: 19.6%
inhibition in vivo at 10 mg/kg [30]: 45%
inhibition in vivo at 10 mg/kg [31]: 54%
inhibition in vivo at 10 mg/kg [32]: 56%
inhibition in vivo at 10 mg/kg [33]: 65%
inhibition in vivo at 10 mg/kg [34]: 59%
inhibition in vivo at 30 mg/kg [35]: 44%
inhibition in vivo at 30 mg/kg [36]: 83%
inhibition in vivo at 30 mg/kg [37]: 93%
inhibition in vivo at 30 mg/kg [38]: 93%
